Columns and labels:
[1] = system: microfilariae of Dirofilaria immitis; experiment: Screening of activity against microfilaria of Dirofilaria immitis (motility, dose response); assay type: cell-based; conditions: 72 h, read-out: EC50 (motility of the microfilaria)
[2] = system: L1 Haemonchus contortus larvae; experiment: Screening of activity against Haemonchus contortus (larval development L1 to L3, dose response); assay type: cell-based; conditions: 96 h, read-out: EC50 (development of the larvae from L1 to L3)
Haemonchus contortus = experiment: In vivo efficacy against Haemonchus contortus in Mongolian jird (Meriones unguiculatus)
[3] = system: Trichostrongylus colubriformis; experiment: In vivo efficacy against Trichostrongylus colubriformis in Mongolian jird (Meriones unguiculatus)
Dirofilaria immitis = experiment: In vivo efficacy against Dirofilaria immitis in immunodeficient NSG mice; conditions: vs control group
[4] = Study 2, jird, 25 mg/kg oral gavage
[5] = Study 4, jird, 5 mg/kg oral gavage
[6] = Study #2, NSG mice, 25 mg/kg oral
[7] = Study #2, NSG mice, 50 mg/kg oral
[8] = Study 3, jird, 25 mg/kg oral gavage
[9] = Study #3, NSG mice, 25 mg/kg oral
[10] = Study 1, jird, 10 mg/kg, positive control
[11] = Study 2, jird, 10 mg/kg, positive control
[12] = Study 3, jird, 10 mg/kg, positive control
[13] = Study 4, jird, 10 mg/kg, positive control
[14] = Study 1, jird, 25 mg/kg oral gavage, necropsy 3 days after treatment
[15] = Study 4, jird, 25 mg/kg oral gavage

CC(C)(O)c1c(C(=O)N[C@H]2CCOc3ccccc32)sc2c(-c3cc(Cl)cc(Cl)c3)c(F)cnc12 [Compound 263-8]
EC50 [1]: < 10 nM
EC50 [2]: < 100 nM
% Reduction H. contortus (Haemonchus contortus; [4]): 99.8%
% Reduction H. contortus (Haemonchus contortus; [5]): 99.8%
% Reduction T. columbriformis [3, 4]: 100.0%
% Reduction T. columbriformis [3, 5]: 99.9%

CC(C)c1c(C(=O)N[C@H]2CCOc3ccccc32)sc2c(C3(F)CCCCC3)ccnc12 [Compound 255, N-[(4S)-3,4-dihydro-2H-1-benzopyran-4-yl]-7-(1-fluorocyclohexyl)-3-isopropylthieno[3,2-b]pyridine-2-carboxamide]
EC50 [2]: 100 to 10000 nM

CC(C)c1c(C(=O)N[C@H]2CCOc3ccccc32)sc2c(-c3cc(F)cc(F)c3)ccnc12 [Compound 120]
% Reduction worms (Dirofilaria immitis; [6]): 47%
% Reduction worms (Dirofilaria immitis; [7]): 33%

CC(C)(F)c1c(C(=O)N[C@H]2CCOc3ccccc32)sc2c(-c3cc(Cl)cc(Cl)c3)cncc12 [Compound 264, 7-(3,5-dichlorophenyl)-N-[(4S)-3,4-dihydro-2H-1-benzopyran-4-yl]-3-(2-fluoropropan-2-yl)thieno[3,2-c]pyridine-2-carboxamide]
EC50 [1]: < 10 nM
EC50 [2]: < 100 nM

CC(C)c1c(C(=O)N[C@H]2CCOc3ccccc32)sc2c(-c3cc(F)cc(F)c3)c(F)cnc12 [Compound 204]
% Reduction worms (Dirofilaria immitis; Study #1, NSG mice, 50 mg/kg oral at Days 1, 15, 30 post-infection): 65%
% Reduction H. contortus (Haemonchus contortus; [8]): 100.0%
% Reduction H. contortus (Haemonchus contortus; [5]): 50.1%
% Reduction T. columbriformis [3, 8]: 100.0%
% Reduction T. columbriformis [3, 5]: 22.2%

O=C(N[C@H]1CCOc2ccccc21)c1sc2c(-c3cc(F)cc(F)c3)cccc2c1C1=CCOCC1 [Compound 102-1]
EC50 [2]: 100 to 10000 nM

C=C(C)c1c(C(=O)N[C@H]2CCOc3ccccc32)sc2c(-c3cc(F)cc(F)c3)cnnc12 [Compound 239-INT-1]
EC50 [2]: 100 to 10000 nM

CC(C)(F)c1c(C(=O)N[C@H]2CCOc3ccccc32)sc2c(-c3cc(Cl)cc(Cl)c3)ccnc12 [Compound 212]
% Reduction worms (Dirofilaria immitis; Study #1, NSG mice, 23 mg/kg (table) oral at Days 1, 15, 30 post-infection): 13%

CC(C)c1c(C(=O)N[C@H]2CCOc3ccccc32)sc2c(-c3cccc(F)c3)ccnc12 [Compound 207]
% Reduction worms (Dirofilaria immitis; [9]): 55%

C=C(C)c1c(C(=O)N[C@H]2CCOc3ccccc32)sc2c(-c3cc(F)cc(F)c3)ccnc12 [Compound 119]
EC50 [2]: 100 to 10000 nM
% Reduction worms (Dirofilaria immitis; [6]): 67%
% Reduction worms (Dirofilaria immitis; [7]): 37%

CC(C)(O)c1c(C(=O)N[C@H]2CCOc3ccccc32)sc2c(-c3cc(Cl)cc(Cl)c3)cncc12 [Compound 264-0, 7-(3,5-dichlorophenyl)-N-[(4S)-3,4-dihydro-2H-1-benzopyran-4-yl]-3-(2-hydroxypropan-2-yl)thieno[3,2-c]pyridine-2-carboxamide]
EC50 [2]: < 100 nM

O=C(N[C@H]1CCOc2ccccc21)c1sc2c(-c3cc(F)cc(F)c3)ccnc2c1C(F)(F)C(F)(F)F [Compound 238]
EC50 [1]: < 10 nM
EC50 [2]: 100 to 10000 nM

CC(C)c1c(C(=O)N[C@H]2CCOc3ccc(F)cc32)sc2c(-c3cc(Cl)cc(Cl)c3)ccnc12 [Compound 211]
% Reduction worms (Dirofilaria immitis; Study #1, NSG mice, 25 mg/kg oral at Days 1, 15, 30 post-infection): 61%
% Reduction H. contortus (Haemonchus contortus; [8]): 100.0%
% Reduction T. columbriformis [3, 8]: 100.0%

c1ccc([C@H]2CN3CCSC3=N2)cc1 [Levamisole, levamisole, reference compound]
% Reduction H. contortus (Haemonchus contortus; [10]): 98.4%
% Reduction H. contortus (Haemonchus contortus; [11]): 100.0%
% Reduction H. contortus (Haemonchus contortus; [12]): 100.0%
% Reduction H. contortus (Haemonchus contortus; [13]): 99.8%
% Reduction T. columbriformis [3, 10]: 89.1%
% Reduction T. columbriformis [3, 11]: 96.4%
% Reduction T. columbriformis [3, 12]: 100.0%
% Reduction T. columbriformis [3, 13]: 72.2%

CC(C)c1c(C(=O)N[C@H]2CCOc3ccccc32)sc2c(-c3cc(F)cc(F)c3)c(Cl)cnc12 [Compound 310]
EC50 [1]: 100 to 10000 nM
EC50 [2]: < 100 nM

CC(C)(F)c1c(C(=O)N[C@H]2CCOc3ccccc32)sc2c(-c3cc(Cl)cc(Cl)c3)c(F)cnc12 [Compound 263]
% Reduction H. contortus (Haemonchus contortus; [14]): 100.0%
% Reduction T. columbriformis [3, 14]: 100.0%

CC(C)c1c(C(=O)N[C@H]2CCOc3ccc(F)cc32)sc2c(-c3cc(F)cc(F)c3)ccnc12 [Compound 257]
% Reduction worms (Dirofilaria immitis; [9]): 45%

CC(C)c1c(C(=O)N[C@H]2CCOc3ccc(F)cc32)sc2c(-c3cc(F)cc(F)c3)c(F)cnc12 [Compound 260]
% Reduction H. contortus (Haemonchus contortus; [15]): 23.5%
% Reduction T. columbriformis [3, 15]: 45.8%

CC(C)c1c(C(=O)N[C@H]2CCOc3ccccc32)sc2c(C3CCCCC3)ccnc12 [Compound 223]
EC50 [1]: < 10 nM
EC50 [2]: 100 to 10000 nM

C=C(C)c1c(C(=O)N[C@H]2CCOc3ccccc32)sc2c(-c3cc(Cl)cc(Cl)c3)ccnc12 [Compound 285]
% Reduction H. contortus (Haemonchus contortus; [14]): 100.0%
% Reduction T. columbriformis [3, 14]: 100.0%

Cc1cc(F)cc(C)c1-c1ccnc2c(C(C)C)c(C(=O)N[C@H]3CCOc4ccccc43)sc12 [Compound 201, N-[(4S)-3,4-dihydro-2H-1-benzopyran-4-yl]-7-(4-fluoro-2,6-dimethylphenyl)-3-isopropylthieno[3,2-b]pyridine-2-carboxamide]
EC50 [2]: 100 to 10000 nM

CC(=O)c1c(C(=O)N[C@H]2CCOc3ccc(F)cc32)sc2c(-c3cc(Cl)cc(Cl)c3)ccnc12 [Compound 259-4]
EC50 [1]: 100 to 10000 nM

O=C(N[C@H]1CCOc2ccccc21)c1sc2c(-c3cc(F)cc(F)c3)ccnc2c1C(F)F [Compound 205]
EC50 [1]: 100 to 10000 nM
EC50 [2]: 100 to 10000 nM

CC(C)(C)c1c(C(=O)N[C@H]2CCOc3ccccc32)sc2c(-c3cc(F)cc(F)c3)ccnc12 [Compound 210]
% Reduction worms (Dirofilaria immitis; [9]): 55%
% Reduction H. contortus (Haemonchus contortus; [8]): 100.0%
% Reduction T. columbriformis [3, 8]: 100.0%

C[C@@H]1C[C@H](C)CN(c2ccnc3c(N4CCOCC4)c(C(=O)N[C@H]4CCOc5ccccc54)sc23)C1 [Compound 217]
EC50 [1]: 100 to 10000 nM

CC(C)(O)c1c(C(=O)N[C@H]2CCOc3ccccc32)sc2c(-c3ccnc(Cl)c3)ccnc12 [Compound 268-4]
EC50 [2]: 100 to 10000 nM

CC(C)(F)c1c(C(=O)N[C@H]2CCOc3ccc(F)cc32)sc2c(-c3cc(Cl)cc(Cl)c3)ccnc12 [Compound 259]
% Reduction H. contortus (Haemonchus contortus; [15]): 100.0%
% Reduction T. columbriformis [3, 15]: 99.5%
